Like-named read-outs stand apart in the source and are kept apart here.
How the values were obtained:
Format in all cases: biochemical
[1] = target: T1, Cdc34-FLAG (ubiquitin conjugating enzyme Cdc34, SwissProt P49427) (Homo sapiens, UniProt P49427); assay: Cdc34 thioester assay (time resolved fluorescence)
T1 construct: GST with Factor Xa cleavage site (N, cleaved yes); made in house; host or cells: baculovirus, High Five insect cells
T1 sequence (P49427 1-236): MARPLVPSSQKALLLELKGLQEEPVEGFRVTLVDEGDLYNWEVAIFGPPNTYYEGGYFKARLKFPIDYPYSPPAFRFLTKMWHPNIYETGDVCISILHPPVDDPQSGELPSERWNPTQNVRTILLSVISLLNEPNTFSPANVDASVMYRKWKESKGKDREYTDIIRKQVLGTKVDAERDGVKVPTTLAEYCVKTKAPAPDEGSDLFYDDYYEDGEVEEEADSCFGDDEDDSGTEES
Experimental: (§1) Cdc34 thioester assay: Here, we describe an assay, based on time resolved fluorescence, to monitor the formation of the thioester intermediate between ubiquitin and the ubiquitin-conjugating enzyme Cdc34. The assay is aimed at screening for inhibitors of Cdc34 thioester formation and requires Eu-labelled ubiquitin (Eu—Ub), GST-E1 and Cdc34-FLAG. • Mix: In non-absorbing plates • 10 μl Test compound 5×conc. in 5% DMSO • 30 μl Cdc34-FLAG (20.8 nM) in 1×TEB (no ATP) • Incubate 10 min at RT • Add: 10 μl Eu—Ub (31.2 nM), GST-E1 (125 nM) in 1×TEB+ATP (Pre-incubated 10 min at RT). • Incubate 30 min at RT • Final Concentrations: Test compound 50/12.5/3.13/0.78/0.2/0.05 μM • Cdc34-FLAG 12.5 nM • Eu—Ub 6.25 nM • GST-E1 25 nM • Transfer: 45 μl To streptavidin coated plate containing 50 μl / well Superblock−TBS+1 mM NEM+100 nM biotinylated anti-FLAG antibody • Incubate 2 hours at RT • Wash 6×200 μl/well with 1× Wallac Wash Solution • Add 200 μl/well Wallac Enhancer Solution • Mix 5 min • Read • Positive Control: no test compound, 10 μl 5% DMSO • Negative Control: no Cdc34-FLAG, 30 μl 1×TEB (no ATP)
(§2) The IC50 is defined as 50% inhibition of E2-ubiquitin thioester formation, estimated as the difference in fluorescence obtained in the presence or absence of E2 (Cdc34, UbcH5 or UbcH10).

[2] = target: T2, UbcH5-Strep (SwissProt P51668) (Homo sapiens, UniProt P51668); assay: UbcH5 thioester assay; details: thioester formation; n=2
T2 construct: GST with Factor Xa cleavage site (N, cleaved yes); made in house; host or cells: baculovirus, High Five insect cells
Source text: (§3) The assays measuring the formation of the thioester intermediate between ubiquitin and the ubiquitin conjugating enzymes Cdc34 (SwissProt P49427) UbcH5 (SwissProt P51668) and UbcH10 (SwissProt O00762) are described below.
(§4) UbcH5 and UbcH10 thioester assays: Here, we describe an assay, based on time resolved fluorescence, to monitor the formation of the thioester intermediate between ubiquitin and the ubiquitin-conjugating enzymes UbcH5, respectively UbcH10. […]

[3] = target: T3, UbcH10-Strep (SwissProt O00762) (Homo sapiens, UniProt O00762); assay: UbcH10 thioester assay; details: thioester formation; n=2
T3 construct: GST with Factor Xa cleavage site (N, cleaved yes); made in house; host or cells: baculovirus, High Five insect cells
T3 sequence (O00762 1-179): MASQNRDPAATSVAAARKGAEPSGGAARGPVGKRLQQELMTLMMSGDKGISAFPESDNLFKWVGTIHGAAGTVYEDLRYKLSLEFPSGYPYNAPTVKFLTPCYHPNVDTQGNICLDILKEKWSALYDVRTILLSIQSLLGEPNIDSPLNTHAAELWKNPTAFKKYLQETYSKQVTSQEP
Source text: as §3, §4

[4] = target: T4, Cdc34-FLAG (Homo sapiens, UniProt P49427); assay: Cdc34 thioester assay in the presence of the chelating agents phenantroline or TSQ (zinc depletion / re-addition); details: for IC50: read-out: Compound I IC50
T4 construct: GST with Factor Xa cleavage site (N, cleaved yes); made in house; host or cells: baculovirus, High Five insect cells
T4 sequence (P49427 1-236): T1 sequence (P49427 1-236)
Experimental: as §1
Cdc34 thioester assay in the presence of the chelating agents phenantroline or TSQ In order to deplete Cdc34 from zinc prior to measuring the inhibitory activity of the test compounds, the Cdc34 thioester assay described above was modified as follows. • Mix: In non-absorbing plates on ice • 10 μl Cdc34-FLAG (62.5 nM) in 1×TEB (no ATP) • 10 μl 5× Phenanthroline/5×TSQ/buffer • 10 μl 5×ZnCl2/buffer • Incubate 10 min on ice • Add: 10 μl Test compound 5×conc. in 5% DMSO • 10 μl Eu—Ub (31.2 nM), GST-E1 (125 nM) in 1×TEB+ATP (Pre-incubated 10 min at RT). • Incubate 30 min at RT • Phenanthroline (Sigma # P-9375) • TSQ (Molecular Probes # M-688)
as §2

T2 sequence (P51668 whole entry): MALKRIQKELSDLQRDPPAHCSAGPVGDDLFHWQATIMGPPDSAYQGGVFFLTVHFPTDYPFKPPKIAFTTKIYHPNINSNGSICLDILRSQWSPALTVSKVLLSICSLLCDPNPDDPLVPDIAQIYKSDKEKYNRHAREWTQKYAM

Compound: Cc1cc(C)n(C(=O)c2cn3c(C)csc3n2)n1 [Compound I, (3,5-dimethyl-pyrazol-1-yl)-(3-methyl-imidazo[2,1-b]thiazol-6-yl)-methanone]
- IC50 ([1]; thioester formation, mean of n=5, read-out: Cdc34-FLAG IC50): 390 nM
- IC50 [2]: > 50 µM
- IC50 [3]: > 50 µM
- IC50 ([4]; 1,10-Phenanthroline 0 μM, ZnCl2 0 nM): 740 nM
- IC50 ([4]; 1,10-Phenanthroline 0 μM, ZnCl2 100 nM): 550 nM
- IC50 ([4]; 1,10-Phenanthroline 0 μM, ZnCl2 200 nM): 360 nM
- IC50 ([4]; 1,10-Phenanthroline 2 μM, ZnCl2 0 nM): 1400 nM
- IC50 ([4]; 1,10-Phenanthroline 2 μM, ZnCl2 100 nM): 640 nM
- IC50 ([4]; 1,10-Phenanthroline 2 μM, ZnCl2 200 nM): 710 nM
- IC50 ([4]; 1,10-Phenanthroline 10 μM, ZnCl2 0 nM): 8800 nM
- IC50 ([4]; 1,10-Phenanthroline 10 μM, ZnCl2 100 nM): 4600 nM
- IC50 ([4]; 1,10-Phenanthroline 10 μM, ZnCl2 200 nM): 1380 nM
- inhibitory activity on Cdc34 thioester formation ([4]; Cdc34 pretreated with 50 μM phenanthroline (FIG. 3)): completely abolished
- IC50 ([4]; TSQ 0 μM, ZnCl2 0 nM): 640 nM
- IC50 ([4]; TSQ 0 μM, ZnCl2 100 nM): 600 nM
- IC50 ([4]; TSQ 0 μM, ZnCl2 200 nM): 700 nM
- IC50 ([4]; TSQ 2 μM, ZnCl2 0 nM): 4200 nM
- IC50 ([4]; TSQ 2 μM, ZnCl2 100 nM): 950 nM
- IC50 ([4]; TSQ 2 μM, ZnCl2 200 nM): 1300 nM
- IC50 ([4]; TSQ 10 μM, ZnCl2 0 nM): 10600 nM
- IC50 ([4]; TSQ 10 μM, ZnCl2 100 nM): 3300 nM
- IC50 ([4]; TSQ 10 μM, ZnCl2 200 nM): 600 nM
- effect of phenantroline on inhibitory activity of the compounds ([4]; compound added to Cdc34 before phenantroline (data not shown)): failed to abolish the inhibitory activity

Compound: Cc1cc(C)n(C(=O)c2cn3ccsc3n2)n1 [Compound II, (3,5-Dimethyl-pyrazol-1-yl)-imidazo[2,1-b]thiazol-6-yl-methanone]
- IC50 ([1]; read-out: IC50 values as determined in the Cdc34 thioester assays): ≤ 1000 nM

Compound: CCCc1csc2nc(C(=O)n3nc(C)cc3C)cn12 [Compound V, (3,5-dimethyl-pyrazol-1-yl)-(3-propyl-imidazo[2,1-b]thiazol-6-yl)-methanone]
- IC50 [2]: > 50 µM
- IC50 [3]: > 50 µM

Compound: c1cnc2c(c1)ccc1cccnc12 [phenathroline, 1,10-Phenanthroline, reference compound]
- effect per se on the ability of Cdc34 to undergo thioester formation with ubiquitin ([4]; FIG. 3): does not affect per se
